Among the data in ChEMBL document CHEMBL1133807, “Regiospecific phosphohydrolases from Dictyostelium as tools for the chemoenzymatic synthesis of the enantiomers D-myo-inositol 1,2,4-trisphosphate and D-myo-inositol 2,3,6-trisphosphate: non-physiological, potential analogues of biologically active D-myo-inositol 1,3,4-trisphosphate” (Bioorg Med Chem Lett, 2001) are IC50 values, retold here.

Some results are limits rather than exact numbers.

The experiment in a line: Inhibition of recombinant human Inositol 3,4,5,6 tetrakisphosphate 1-kinase using [3H]Ins(3,4,5,6)[…] as substrate.
The term IC50 denotes the concentration that gives 50% inhibition. `O=P(O)(O)O[C@H]1[C@H](O)[C@@H](O)[C@H](OP(=O)(O)O)[C@@H](OP(=O)(O)O)[C@H]1O`: the half-maximal inhibitory concentration (IC50) is around 4 µM. `O=P(O)(O)O[C@H]1[C@H](O)[C@@H](O)[C@H](OP(=O)(O)O)[C@H](OP(=O)(O)O)[C@@H]1O`: the half-maximal inhibitory concentration (IC50) was around 9 µM. Regarding `O=P(O)(O)O[C@@H]1[C@@H](O)[C@H](O)[C@@H](OP(=O)(O)O)[C@@H](OP(=O)(O)O)[C@H]1O`, the IC50 is at least 300 µM.
